Source: patent EP2229935A1, “Peptide derivatives or pharmaceutically acceptable salts thereof, method for producing the same, use of said derivatives and pharmaceutical composition” (Nebolsin, Vladimir Evgenievich, priority 1997, dated 1999)
Marks after values point to notes of the source that are not given here.

Key:
mongrel rats = experiment: Antiischemic activity: necrosis zone after coronary artery occlusion (myocardial infarction); format: in vivo; details: 4 hours after coronary artery occlusion, oral 4 days
Procedure: Antiischemic activity of a compound was assessed by an integral test, i.e. effect on the necrosis zone area following reproduction of myocardial infarction in mongrel rats weighing 250-300 g.
Effect of a compound on the necrosis zone area was studied in 4 hours after arterial occlusion in rats using a differential indicator method [Sernov L.N., Gatsura V.V. A differential indicator method for determinig ischemic and necrotic zone in experimental myocardial infarction in rats. Bulletin of Experimental Biology and Medicine (1989), No 5, pp. 534-535]. All the painful manipulations were performed on animals under Ethaminal anesthesia (Ethaminal - 40 mg/kg intraperitoneally). Experiment was carried out in 15 hours after the last compound administration. Each group included 8 animals.
Groups of animals: • Group 1 - intact control -administration of normal saline four times. • Groups 2 and 3 - oral administration of the compound III at doses respectively 50 and 500 µg/kg for 4 days. • Group 4 - single intraperitoneal administration of Nicorandil at a dose 1 mg/kg immediately after occlusion.

mongrel white male mice = experiment: Delayed type hypersensitivity induced by sheep red blood cells; format: in vivo; details: DTH to sheep red blood cells; for Difference in paw masses: 24 hours; for Percent to the control / Reaction index, percent: oral
Procedure: Studies were cartried out on mongrel white male mice with initial body mass 22-24 g. Each group included 10 animals. Mice were sensitized with intravenous injection of the suspension of 2 x 10^5 sheep red blood, cells in 0.05 ml normal saline. By day 5, the suspension of 10^8 sheep red blood cells in 0.05 ml normal saline was injected into the hind paw pad. As a control, the solvent, i.e. normal saline in equivalent amount, was injected. Reaction intensity was assessed in 24 hours by difference in the paw masses of animals. Reaction index = (Mt -Mc)/(Mc)x 100 [formula]
The test compound III was orally administered for three days at doses 50 and 500 µg/kg according to the dosage regimen - days 3, 4 and 5, day 5 - administration of the anaphylaxis-provoking dose.

white mongrel male rats = experiment: Carrageenan paw edema, cutaneous gel application (series 2); format: in vivo
Procedure: Experiment was carried out on white mongrel male rats weighing 280-300 g. Carrageenan-induced edema was caused according to the method of Winter et al. [[inter et al. In: De Rosa M., Giroud J.P., Willoughby D.A. Studies of the mediators of the acute inflammatory reponse induced in rats in different sites by carrageenan and turpentine. […] Paw volume measurement was done using a plethysmograph (Ugo Basile) 1, 3 and 4 hours after carrageenan administration. Inhibition of inflammatory reaction expressed in percent, was calculated according to the formula: 100-[(R-L(exper.))/(L):(R-L(control))/(L)x100](%) [formula] where R - the right paw volume, L - the left paw volume.
Series 2 of experiment. 2% carrageenan solution was injected sublaterally into paws of rats. In 1 minute 0.1 ml of gel comprising the test compounds were applied on the right paw. Gel base consisted of propylene glycol dissolved in the mixture of water and ethanol. Concentration of the compounds in the gel was 1%. Volume of paws was measured 4 hours after carrageenan administration.

[1] = system: lipid peroxidation (LP) products; experiment: Antioxidant activity in vivo: acute toxic hepatic lesion with CCl4; details: rats, CCl4 3 days; for Liver, MDA, nM/mg of tissue / Liver, diene conjugates, E232/mg of tissue / Liver, diene ketones, trienes E278/mg of tissue: intragastral
Procedure: Antioxidant activity was studied in an in vivo experiment on the model of acute toxic hepatic lesion with carbon quadrichloride (CCl4).
Experiment was carried out on 40 mongrel male rats with initial body mass 190-200 g fed a standard vivarium ration. Each group included 10 animals. Hepatic lesion (experimental hepatitis) was induced in animals by intragastral administration of 0.25 ml per 100 g of body mass CCl4 in the form of 50% solution in vaseline oil for 3 days [Vengerovsky A.I., Chuchalin V.S., Pauls O.V., Saratikov A.S. Effect of hepatoprotectors on lipid metabolism in hepatitis induced by Ccl4. Bulletin of Experimental Biology (1987), No 4, pp. 430-432]. […] Animals of the control group were administered CCl4 as described above (group 2). Intact animals were orally given normal saline in an equivalent amount (group 1).
The content of primary lipid peroxidation (LP) products - diene conjugates, diene ketones and trienes - were determined using the published method [Volchegorsky I.A., Nalimov A.G., Yarovinsky B.G., Lifshits R.I. Comparison of different approaches to determining lipid peroxidation products in heptane-isopropanolic blood extracts. Voprosy Meditsinskoy Chimii (Problems of Medical Chemistry) (1989),No 1, pp. 127-131]. Content calculation of LP products was done correlating the values of respective extinctions with 1 ml of test sample.
The amount of LP final product - malonic dialdehyde (MDA) - was determined by the test with thiobarbituric acid (TBA) [Korobeinikova E.N. Modification of lipid peroxidation products in the reaction with thiobarbituric acid. Laboratornoye delo (Laboratory Matter) (1989), No 7, pp. 8-10]. Concentration of TBA-active product was calculated using regression equation. MDA content in the liver of experimental animals was assessed using the modified method [Stalnaya I.D., Garishvili T.G. The method of determining malonic dialdehyde using thiobarbituric acid. In: Modem methods in biochemistry. Moscow, Meditsina publishers. (1977), pp. 66-69], performing preliminary extraction of lipids according to Folch [Cates M. Technology of Lipidology. Moscow, Mir publishers (1975), pp. 74-76].

superoxide anion-radical = experiment: Superoxide anion-radical formation in the xantine-xantine oxidase system (chemiluminescence); format: biochemical
Procedure: Effect of the compounds of general formula (I) on change in chemiluminescence (CL) determined by hydroxyl radical ( OH) and superoxide anion-radical (O2-), in the model chemical and enzymatic systems.
5 to 10 ml of the test compounds dissolved in water were at needed concentration introduced into a cuvette. A total sample volume was 0.5 ml. • B. Superoxide anion-radical in the mixture of xantine and xantine oxidase [Afanas'ev I., Suslova T., Cheremisina Z. et al. Study of antioxidant properties of metal aspartates.
Incubation medium comprised 5 mM KH2PO4; 0.2 IU/ml xantine oxidase. Xantine at concentration 1 mM was introduced into sample through a dispencer. Luceginine (0.2 mM) was used in this system as luminiscence sensitizer.
CL signal indication was performed by its integration every 10 seconds for 5 minutes. CL flash recording duration after mixing ingredients, depended on a particular process kinetics. For each system, CL light sum (mV) was determined in the control samples without preparations (I-) and in samples comprising respective concentrations of preparations (I+). To estimate CL inhibition (activation) degree, the I+/I- ratio (in relative units) was found in the studied systems.
AOF formation and effect of the test compounds on this process were recorded on the Luminometer-1251 instrument (LKB, Sweden).
Because of such "distension" of the kinetic curve, chemiluminescence light sum was recorded during the first 3-5 minutes which reflected a total amount of light quantums produced in the system till achieving the maximum CL intensity values.

mongrel male rats = experiment: Hypolipidemic activity: experimental hyperlipidemia (atherogenic load); details: atherogenic diet, oral last four days, 50 µg/kg;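 also: serum drawn 18 h after the final dose from rats deprived of food over that interval, groups of 10 animals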
Procedure: Hypolipidemic activity of the compounds of general formula (I) was studied on the model of experimental hyperlipidemia [Arichi H., Kumura H.O. Effects of stibens compounds of roots of polygonum cuspidatium on the lipid metabolism. […] Each group of animals included 10 rats. […] Blood samples were taken for analysis 18 hours after the last administration of the test substances during which period food was taken away from rats.
The following parameters were determined: total cholesterol (total CS); high density lipoprotein cholesterol (HDL-CS); low density lipoprotein cholesterol and very low density lipoprotein cholesterol (LDL-CS and VLDL-CS); triglycerides (TG). Blood serum CS level was determined according to the Ilk method [Biochemical examination in the clinic. […] HDL-CS level was measured in supernatant following heparine-manganese precipitation of LDL+VLDL [Titov V.N., Brener E.D., Khaltaiev N.G., Zadoya A.A., Tvorogova M.G. A method and diagnostic significance of cholesterol level study in α-lipoproteins. […] LDL-CS level determination was carried out by calculation according to the formula presented in the work Friedwald W.T. [Friedwald W.T., Levy K.J., Leus R. Fat transport in lipoproteins: an integrated approach to mechanism and disorders.
To assess the effect of the test compounds on the ratio of atherogenic and antiatherogenic blood serum lipoproteins, cholesterol index (Kcs) was calculated according to the formula presented in the work [Klimov A.N., Nikulcheva N.G. Lipoproteins, dylipoproteinemias and atherosclerosis.
Blood serum TG level was determined using the conventional method [Friedwald W.T., Levy R.I., Fredrickson D.S. Estimation of concentration of low-density lipoprotein cholesterol in plasma, without use of preparative ultracentrifuge.

O=C(O)CCCC(=O)NCCc1c[nH]cn1 [compound III, N-GLUTARYLHISTAMINE]
Ischemia zone, percent to the total myocardial mass (mongrel rats; 50 µg/kg): 27,2 ± 2,8% | Necrosis zone percent to myocardial zone (mongrel rats; 50 µg/kg): 56,8 ± 2,7% | Necrosis zone, percent to the total myocardial mass (mongrel rats; 50 µg/kg): 15,4 ± 1,7% | Ischemia zone, percent to the total myocardial mass (mongrel rats; 500 µg/kg): 31,1 ± 3,1% | Necrosis zone percent to myocardial zone (mongrel rats; 500 µg/kg): 54,3 ± 2,1% | Necrosis zone, percent to the total myocardial mass (mongrel rats; 500 µg/kg): 17,8 ± 1,0% | Difference in paw masses (mongrel white male mice; oral days 3, 4, 5, 50 µg/kg): 16.7 ± 1.9 g | Difference in paw masses (mongrel white male mice; oral days 3, 4, 5, 500 µg/kg): 17.2 ± 1.3 g | Percent to the control (mongrel white male mice; 50 µg/kg): 75.5% | Reaction index, percent (mongrel white male mice; 50 µg/kg): 10.3 ± 1.1% | Percent to the control (mongrel white male mice; 500 µg/kg): 79.3% | Reaction index, percent (mongrel white male mice; 500 µg/kg): 10.8 ± 0.8% | Volume of paws (conditional units) Right (white mongrel male rats; 0.1 ml of 1% gel on right paw, 4 hours after carrageenan): 2.13 ± 0.64 conditional units | Volume of paws (conditional units) left (white mongrel male rats; 1% gel group, left paw, 4 hours): 1.83 ± 0.21 conditional units | Inflammation inhibition (%) (white mongrel male rats; 1% gel, 4 hours): 60% | Volume increment (white mongrel male rats; 1% gel, 4 hours): 0.30 ±0.06*^l | Blood serum, MDA, nM/ml ([1]; intragastral 3 days with CCl4, 50 µg/kg): 4.05 ± 0.198*^2 nM/ml | Blood serum, MDA, nM/ml ([1]; intragastral 3 days with CCl4, 500 µg/kg): 3.89 ± 0.11**^2 nM/ml | Liver, MDA, nM/mg of tissue ([1]; 50 µg/kg): 4.98 ± 0.13**^2 nM/mg of tissue | Liver, diene conjugates, E232/mg of tissue ([1]; 50 µg/kg): 16.25 ± 0.61 E232/mg of tissue | Liver, diene ketones, trienes E278/mg of tissue ([1]; 50 µg/kg): 8.42 ± 0.25**^2 E278/mg of tissue | Liver, MDA, nM/mg of tissue ([1]; 500 µg/kg): 5.01 ± 0.17**2 nM/mg of tissue | Liver, diene conjugates, E232/mg of tissue ([1]; 500 µg/kg): 15.89 ± 0.38 E232/mg of tissue | Liver, diene ketones, trienes E278/mg of tissue ([1]; 500 µg/kg): 8.24 ± 0.19*^2 E278/mg of tissue | Chemiluminiscence intensity (mV) + σn-1 (superoxide anion-radical; 0.1 mM, control of the series as in the table): 5670 ± 379 mV | relative effect: 1+/I- (superoxide anion-radical; 1 mM): 0.72 | Chemiluminiscence intensity (mV) + σn-1 (superoxide anion-radical; 1 mM, control of the series 5616 ± 173, 5391 ± 195, 7290 ± 128 or 6776 ± 150): 4027 ± 683 mV

γ-L-glutamylhistamine [compound XLIV]
HDL-CS (mongrel male rats; blood): 47,3±1,1***^A | LDL-CS+ VLDL-CS (mongrel male rats; blood): 37,4±1,1***^A | Total CS (mongrel male rats; blood): 84,7±3,0**^A | Triglycerides (mongrel male rats; blood): 85,0±6,3***^A | Kcs (mongrel male rats; cholesterol index): 0,79±0,02***^A
